pIC50: −log10 of the molar value.
Tests used:
PIK3CG (human) = PIK3CG (human) (UniProt P48736); assay: Inhibition of PIK3CG Kinase Activity
PIK3CB (Human) = PIK3CB (Human) (UniProt P42338); assay: Inhibition of PIK3CB Kinase Activity
PIK3CA (human) = PIK3CA (human) (UniProt P42336); assay: Inhibition of PIK3CA Kinase Activity
PIK3CD (Human) = PIK3CD (Human) (UniProt O00329); assay: Inhibition of PIK3CD Kinase Activity
Sequence of PIK3CD (Human) (O00329 whole entry, looked up): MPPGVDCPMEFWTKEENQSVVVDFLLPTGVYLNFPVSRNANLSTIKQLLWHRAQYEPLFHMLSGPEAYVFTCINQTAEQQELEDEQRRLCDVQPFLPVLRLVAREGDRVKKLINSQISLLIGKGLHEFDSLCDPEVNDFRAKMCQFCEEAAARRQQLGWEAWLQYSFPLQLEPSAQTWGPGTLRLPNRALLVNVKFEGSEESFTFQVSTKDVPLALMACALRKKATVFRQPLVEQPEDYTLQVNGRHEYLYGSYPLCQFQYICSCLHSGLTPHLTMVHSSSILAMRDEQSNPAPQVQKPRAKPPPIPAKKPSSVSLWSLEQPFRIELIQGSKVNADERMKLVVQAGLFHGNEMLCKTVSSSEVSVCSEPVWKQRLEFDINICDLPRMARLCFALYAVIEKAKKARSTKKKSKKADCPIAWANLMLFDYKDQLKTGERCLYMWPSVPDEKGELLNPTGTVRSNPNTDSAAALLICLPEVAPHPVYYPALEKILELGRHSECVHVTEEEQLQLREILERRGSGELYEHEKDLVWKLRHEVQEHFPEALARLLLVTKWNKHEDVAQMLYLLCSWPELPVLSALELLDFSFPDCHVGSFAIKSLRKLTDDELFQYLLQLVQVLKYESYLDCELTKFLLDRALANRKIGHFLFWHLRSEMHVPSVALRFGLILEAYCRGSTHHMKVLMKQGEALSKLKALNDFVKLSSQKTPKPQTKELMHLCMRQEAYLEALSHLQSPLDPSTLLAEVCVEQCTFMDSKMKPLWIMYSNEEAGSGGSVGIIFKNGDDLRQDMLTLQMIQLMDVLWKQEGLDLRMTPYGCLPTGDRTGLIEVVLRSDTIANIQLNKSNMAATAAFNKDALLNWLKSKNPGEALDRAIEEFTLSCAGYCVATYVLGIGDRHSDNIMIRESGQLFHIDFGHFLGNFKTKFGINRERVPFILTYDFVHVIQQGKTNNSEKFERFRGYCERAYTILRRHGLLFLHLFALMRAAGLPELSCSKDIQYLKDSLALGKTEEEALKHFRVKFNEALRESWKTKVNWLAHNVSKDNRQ

Sequence of PIK3CB (Human) (P42338 whole entry, looked up): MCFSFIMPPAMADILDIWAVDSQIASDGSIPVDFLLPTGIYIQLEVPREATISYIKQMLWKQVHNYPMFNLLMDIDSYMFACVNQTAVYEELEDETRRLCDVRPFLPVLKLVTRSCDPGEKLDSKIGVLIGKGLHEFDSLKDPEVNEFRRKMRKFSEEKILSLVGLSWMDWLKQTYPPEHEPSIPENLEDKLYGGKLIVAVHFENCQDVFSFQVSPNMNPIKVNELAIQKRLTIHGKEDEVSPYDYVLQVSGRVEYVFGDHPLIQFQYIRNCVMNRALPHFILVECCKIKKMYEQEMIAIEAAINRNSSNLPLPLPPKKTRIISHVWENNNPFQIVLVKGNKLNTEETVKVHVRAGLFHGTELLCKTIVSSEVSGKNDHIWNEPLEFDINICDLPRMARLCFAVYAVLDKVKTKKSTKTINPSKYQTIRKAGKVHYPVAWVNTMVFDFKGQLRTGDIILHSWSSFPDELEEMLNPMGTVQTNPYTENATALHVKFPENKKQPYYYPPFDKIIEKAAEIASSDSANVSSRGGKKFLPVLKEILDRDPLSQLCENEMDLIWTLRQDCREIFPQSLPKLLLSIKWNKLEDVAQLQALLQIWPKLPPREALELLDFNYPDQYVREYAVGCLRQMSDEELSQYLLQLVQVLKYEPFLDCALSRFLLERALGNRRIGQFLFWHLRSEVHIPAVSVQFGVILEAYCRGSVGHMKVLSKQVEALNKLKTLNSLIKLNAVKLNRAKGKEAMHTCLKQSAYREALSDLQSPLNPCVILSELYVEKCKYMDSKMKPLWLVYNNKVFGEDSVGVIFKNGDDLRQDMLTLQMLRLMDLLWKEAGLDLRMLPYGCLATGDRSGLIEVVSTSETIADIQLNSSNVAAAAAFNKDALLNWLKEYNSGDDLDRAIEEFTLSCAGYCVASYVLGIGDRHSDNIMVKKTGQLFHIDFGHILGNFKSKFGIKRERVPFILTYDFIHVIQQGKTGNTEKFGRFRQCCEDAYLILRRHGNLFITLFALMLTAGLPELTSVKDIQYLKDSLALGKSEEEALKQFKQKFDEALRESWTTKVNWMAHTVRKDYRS
Sequence of PIK3CA (human) (P42336 whole entry, looked up): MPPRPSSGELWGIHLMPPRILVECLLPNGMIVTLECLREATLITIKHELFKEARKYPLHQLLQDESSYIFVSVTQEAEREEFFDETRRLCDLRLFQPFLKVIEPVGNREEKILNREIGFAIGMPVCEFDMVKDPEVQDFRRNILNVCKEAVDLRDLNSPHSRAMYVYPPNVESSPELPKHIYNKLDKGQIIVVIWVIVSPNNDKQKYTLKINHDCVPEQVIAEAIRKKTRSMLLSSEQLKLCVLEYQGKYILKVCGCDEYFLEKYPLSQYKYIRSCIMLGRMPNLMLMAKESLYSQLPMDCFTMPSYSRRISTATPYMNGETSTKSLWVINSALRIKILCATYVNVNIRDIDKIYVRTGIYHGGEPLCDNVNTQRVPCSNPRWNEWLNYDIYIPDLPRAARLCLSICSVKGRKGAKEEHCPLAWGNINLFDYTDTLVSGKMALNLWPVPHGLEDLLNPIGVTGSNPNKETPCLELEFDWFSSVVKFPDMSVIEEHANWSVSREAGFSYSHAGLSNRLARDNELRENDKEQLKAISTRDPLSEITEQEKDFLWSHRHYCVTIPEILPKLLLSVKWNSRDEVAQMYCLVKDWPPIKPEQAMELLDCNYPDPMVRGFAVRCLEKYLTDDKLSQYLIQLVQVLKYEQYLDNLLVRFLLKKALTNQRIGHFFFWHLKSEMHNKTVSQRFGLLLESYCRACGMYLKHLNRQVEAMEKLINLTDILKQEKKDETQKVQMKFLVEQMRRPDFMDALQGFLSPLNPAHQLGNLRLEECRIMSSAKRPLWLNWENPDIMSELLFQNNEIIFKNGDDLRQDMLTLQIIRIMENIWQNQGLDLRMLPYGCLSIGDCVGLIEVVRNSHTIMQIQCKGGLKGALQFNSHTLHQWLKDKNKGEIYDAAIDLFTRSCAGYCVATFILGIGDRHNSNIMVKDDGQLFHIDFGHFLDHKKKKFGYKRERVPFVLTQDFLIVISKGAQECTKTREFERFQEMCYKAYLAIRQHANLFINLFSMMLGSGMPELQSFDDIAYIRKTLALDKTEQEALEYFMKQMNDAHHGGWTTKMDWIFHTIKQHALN
Sequence of PIK3CG (human) (P48736 whole entry, looked up): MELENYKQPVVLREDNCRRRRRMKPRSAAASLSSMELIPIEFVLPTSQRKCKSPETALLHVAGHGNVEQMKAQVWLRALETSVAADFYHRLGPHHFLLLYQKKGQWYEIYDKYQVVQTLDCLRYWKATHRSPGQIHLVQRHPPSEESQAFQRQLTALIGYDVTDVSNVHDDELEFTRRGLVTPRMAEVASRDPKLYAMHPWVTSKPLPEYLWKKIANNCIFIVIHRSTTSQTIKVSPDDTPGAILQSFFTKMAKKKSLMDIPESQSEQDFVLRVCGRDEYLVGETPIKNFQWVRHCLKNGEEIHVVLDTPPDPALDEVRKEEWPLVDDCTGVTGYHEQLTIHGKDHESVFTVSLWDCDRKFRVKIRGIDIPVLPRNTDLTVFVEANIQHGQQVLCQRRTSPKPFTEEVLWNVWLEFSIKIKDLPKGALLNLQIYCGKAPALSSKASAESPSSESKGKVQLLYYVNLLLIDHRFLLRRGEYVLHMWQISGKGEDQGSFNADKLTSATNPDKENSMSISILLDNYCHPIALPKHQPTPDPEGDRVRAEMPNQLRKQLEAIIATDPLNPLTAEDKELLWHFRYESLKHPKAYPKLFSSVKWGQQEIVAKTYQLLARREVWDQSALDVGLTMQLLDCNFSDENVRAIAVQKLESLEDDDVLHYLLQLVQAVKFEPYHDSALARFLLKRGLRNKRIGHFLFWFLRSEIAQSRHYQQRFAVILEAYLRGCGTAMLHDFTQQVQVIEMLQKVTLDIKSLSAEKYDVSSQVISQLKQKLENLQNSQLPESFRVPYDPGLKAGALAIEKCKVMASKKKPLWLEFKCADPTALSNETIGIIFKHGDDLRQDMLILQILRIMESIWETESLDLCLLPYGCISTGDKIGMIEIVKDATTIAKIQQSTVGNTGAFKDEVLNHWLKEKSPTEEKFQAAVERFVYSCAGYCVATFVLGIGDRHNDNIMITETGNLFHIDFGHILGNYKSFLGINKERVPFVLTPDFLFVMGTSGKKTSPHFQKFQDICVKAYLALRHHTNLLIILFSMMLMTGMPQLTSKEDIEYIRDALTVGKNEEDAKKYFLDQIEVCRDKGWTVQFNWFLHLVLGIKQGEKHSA

pIC50 (PIK3CG (human)) | pIC50 (PIK3CB (Human)) | pIC50 (PIK3CA (human)) | pIC50 (PIK3CD (Human)) | Structure (SMILES)
< 5.00 | 7.30 | 7.30 |  | Cc1cc(NCc2ccccc2)c2nc(N3CCOCC3)cc(=O)n2c1
 | 7.70 | 7.70 |  | Cc1cc(F)ccc1Oc1cccc2c(=O)cc(N3CCOCC3)[nH]c12
< 5.70 | < 5.70 | < 5.70 | 7.30 | O=c1c2c(Cl)cccc2nc(CSc2ncnc3[nH]cnc23)n1-c1ccccc1-c1ccccc1

Structure (SMILES) | pIC50 (PIK3CG (human)) | pIC50 (PIK3CB (Human)) | pIC50 (PIK3CA (human)) | pIC50 (PIK3CD (Human))
O=c1c(O)c(-c2ccc(O)c(O)c2)oc2cc(O)cc(O)c12 |  |  | 5.42 | 

— the Kinase Knowledgebase extract (Sharma et al. 2016)
